Values joined by “and” are separate entries in the source; they are usually repeats but may differ in a detail not shown here. Equal values may be shown once.
How the values were obtained:
[1] = test system: NCI-H358 cells (K-Ras G12C); test: Potency assay: pERK in NCI-H358 cells; type: cell-based, human; settings: Homo sapiens, NCI-H358; H358 KRAS G12C; read-out: pERK EC50
In short: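 4 h cpd, 37 °C; 10-pt 3-fold series, 10 mM DMSO top stock, duplicates. Readout pERK: AlphaLISA SureFire Ultra or In-Cell Western (IR-800CW secondary, DRAQ5 DNA stain). IC50, 4-PL fit vs log conc.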

[2] = target: K-Ras G12C (Homo sapiens (Human), UniProt P01116+P62937, G12C); test: Ras-Raf (BRAF RBD) disruption / FRET / MOA assay, KRAS G12C; type: biochemical; settings: KRAS G12C; Ras-Raf disruption/FRET/MOA assay; read-out: IC50* KRAS G12C FRET data
Chain of K-Ras G12C (P01116-2 other isoform, or with tags, fused parts or gaps G12C): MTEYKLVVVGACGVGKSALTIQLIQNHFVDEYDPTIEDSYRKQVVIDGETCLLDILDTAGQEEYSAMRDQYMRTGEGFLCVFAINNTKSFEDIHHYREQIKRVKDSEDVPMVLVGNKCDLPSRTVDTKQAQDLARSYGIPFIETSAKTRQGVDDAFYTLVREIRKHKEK
Chain of K-Ras G12C (P62937 whole entry): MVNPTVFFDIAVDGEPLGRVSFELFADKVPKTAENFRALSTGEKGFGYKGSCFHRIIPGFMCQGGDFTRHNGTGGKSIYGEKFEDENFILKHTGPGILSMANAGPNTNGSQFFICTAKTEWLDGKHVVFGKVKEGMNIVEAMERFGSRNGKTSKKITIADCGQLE
In short: (§1)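 Compound-driven ternary complex of nucleotide-loaded Ras with cyclophilin A, disrupting BRAF RBD binding. 10-point 3-fold dilution from 30 μM final, 3 h at 25° C, then anti-His Eu-W1024 (10 nM) and anti-GST allophycocyanin (50 nM) for 1.5 h. IC50 from TR-FRET ratio decrease versus DMSO.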

[3] = target: K-Ras G13C (Homo sapiens (Human), UniProt P01116+P62937, G13C); test: Ras-Raf (BRAF RBD) disruption / FRET / MOA assay, KRAS G13C; type: biochemical; settings: KRAS G13C; Ras-Raf disruption/FRET/MOA assay; read-out: IC50* KRAS G13C FRET data
Chain of K-Ras G13C (P01116-2 other isoform, or with tags, fused parts or gaps G13C): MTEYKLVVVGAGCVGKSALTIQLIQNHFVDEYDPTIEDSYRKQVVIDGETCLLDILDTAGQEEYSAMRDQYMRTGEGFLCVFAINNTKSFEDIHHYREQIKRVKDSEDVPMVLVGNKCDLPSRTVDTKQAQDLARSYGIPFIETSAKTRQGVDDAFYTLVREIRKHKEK
Chain of K-Ras G13C (P62937 whole entry): as the sequence (P62937 whole entry) above
In short: as §1

[4] = target: KRAS G12S (Homo sapiens (Human), UniProt P01116+P62937, G12S); test: Ras-Raf (BRAF RBD) disruption / FRET / MOA assay, KRAS G12S; type: biochemical; settings: Ras-Raf disruption/FRET/MOA assay; class symbols; read-out: KRAS G12S FRET data IC50
Chain of KRAS G12S (P01116-2 other isoform, or with tags, fused parts or gaps G12S): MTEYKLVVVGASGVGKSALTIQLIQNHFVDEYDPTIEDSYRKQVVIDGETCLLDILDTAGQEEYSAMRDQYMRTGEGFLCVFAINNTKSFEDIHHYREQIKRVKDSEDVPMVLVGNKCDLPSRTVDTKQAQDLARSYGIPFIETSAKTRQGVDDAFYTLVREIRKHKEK
Chain of KRAS G12S (P62937 whole entry): as the sequence (P62937 whole entry) above
In short: as §1

[5] = target: KRAS G12D (Homo sapiens (Human), UniProt P01116+P62937, G12D); test: Ras-Raf (BRAF RBD) disruption / FRET / MOA assay, KRAS G12D; type: biochemical; settings: Ras-Raf disruption/FRET/MOA assay; class symbols; read-out: KRAS G12D FRET data IC50
Chain of KRAS G12D (P01116-2 other isoform, or with tags, fused parts or gaps G12D): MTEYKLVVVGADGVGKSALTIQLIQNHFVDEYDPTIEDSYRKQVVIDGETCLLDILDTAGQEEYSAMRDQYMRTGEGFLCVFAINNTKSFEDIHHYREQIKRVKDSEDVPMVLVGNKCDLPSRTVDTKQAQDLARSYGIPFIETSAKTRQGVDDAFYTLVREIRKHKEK
Chain of KRAS G12D (P62937 whole entry): as the sequence (P62937 whole entry) above
In short: as §1

[6] = target: KRAS G12V (Homo sapiens (Human), UniProt P01116+P62937, G12V); test: Ras-Raf (BRAF RBD) disruption / FRET / MOA assay, KRAS G12V; type: biochemical; settings: read-out: IC50* KRAS G12V FRET data
Chain of KRAS G12V (P01116-2 other isoform, or with tags, fused parts or gaps G12V): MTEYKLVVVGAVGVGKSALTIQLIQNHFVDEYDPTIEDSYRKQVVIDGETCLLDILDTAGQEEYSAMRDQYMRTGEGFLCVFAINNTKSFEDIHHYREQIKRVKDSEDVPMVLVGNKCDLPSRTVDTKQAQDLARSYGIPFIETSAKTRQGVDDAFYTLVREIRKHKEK
Chain of KRAS G12V (P62937 whole entry): as the sequence (P62937 whole entry) above
In short: as §1

[7] = target: KRAS WT (Homo sapiens (Human), UniProt P01116+P62937); test: Ras-Raf (BRAF RBD) disruption / FRET / MOA assay, KRAS WT; type: biochemical; settings: read-out: IC50* KRAS WT FRET data
Chain of KRAS WT (P01116-2 other isoform, or with tags, fused parts or gaps): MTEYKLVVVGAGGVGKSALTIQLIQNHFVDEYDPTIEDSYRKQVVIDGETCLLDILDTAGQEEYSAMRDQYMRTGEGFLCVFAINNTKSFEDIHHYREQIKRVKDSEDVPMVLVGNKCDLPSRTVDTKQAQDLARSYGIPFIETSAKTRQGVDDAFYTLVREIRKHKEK
Chain of KRAS WT (P62937 whole entry): as the sequence (P62937 whole entry) above
In short: as §1

[8] = target: KRAS G13D (Homo sapiens (Human), UniProt P01116+P62937, G13D); test: Ras-Raf (BRAF RBD) disruption / FRET / MOA assay, KRAS G13D; type: biochemical; settings: read-out: IC50* KRAS G13D FRET data
Chain of KRAS G13D (P01116-2 other isoform, or with tags, fused parts or gaps G13D): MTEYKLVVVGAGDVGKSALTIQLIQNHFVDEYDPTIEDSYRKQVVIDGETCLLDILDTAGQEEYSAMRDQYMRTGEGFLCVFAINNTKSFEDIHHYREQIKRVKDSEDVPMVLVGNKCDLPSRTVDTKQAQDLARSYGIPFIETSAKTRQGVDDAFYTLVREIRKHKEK
Chain of KRAS G13D (P62937 whole entry): as the sequence (P62937 whole entry) above
In short: as §1

[9] = target: KRAS Q61H (Homo sapiens (Human), UniProt P01116+P62937, Q61H); test: Ras-Raf (BRAF RBD) disruption / FRET / MOA assay, KRAS Q61H; type: biochemical; settings: Ras-Raf disruption/FRET/MOA assay; class symbols; read-out: KRAS Q61H FRET data IC50
Chain of KRAS Q61H (P01116-2 other isoform, or with tags, fused parts or gaps Q61H): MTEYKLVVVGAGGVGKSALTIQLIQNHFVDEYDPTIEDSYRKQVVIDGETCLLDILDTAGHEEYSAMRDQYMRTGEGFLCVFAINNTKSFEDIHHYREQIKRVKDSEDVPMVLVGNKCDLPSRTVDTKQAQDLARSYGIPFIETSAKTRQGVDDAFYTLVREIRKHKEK
Chain of KRAS Q61H (P62937 whole entry): as the sequence (P62937 whole entry) above
In short: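 Compounds (30 μM top final, 10-point 3-fold dilutions) incubated 3 h at 25° C with nucleotide-loaded Ras, cyclophilin A and BRAF RBD. Detection with 10 nM anti-His Eu-W1024 and 50 nM anti-GST allophycocyanin over another 1.5 h. Lowered TR-FRET ratio relative to DMSO wells gives IC50.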

[10] = target: NRAS G12C (Homo sapiens (Human), UniProt P01111+P62937, G12C); test: Ras-Raf (BRAF RBD) disruption / FRET / MOA assay, NRAS G12C; type: biochemical; settings: read-out: IC50* NRAS G12C FRET data
Chain of NRAS G12C (P01111 whole entry G12C): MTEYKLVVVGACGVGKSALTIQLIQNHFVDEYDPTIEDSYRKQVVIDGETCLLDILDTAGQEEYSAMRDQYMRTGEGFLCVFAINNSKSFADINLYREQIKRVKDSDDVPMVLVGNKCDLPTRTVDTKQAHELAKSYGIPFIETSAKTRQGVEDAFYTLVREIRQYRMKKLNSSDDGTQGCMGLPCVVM
Chain of NRAS G12C (P62937 whole entry): as the sequence (P62937 whole entry) above
In short: as §1

[11] = target: NRAS Q61R (Homo sapiens (Human), UniProt P01111+P62937, Q61R); test: Ras-Raf (BRAF RBD) disruption / FRET / MOA assay, NRAS Q61R; type: biochemical; settings: NRAS Q61R; Ras-Raf disruption/FRET/MOA assay; read-out: IC50* NRAS Q61R FRET data
Chain of NRAS Q61R (P01111 whole entry Q61R, canonical isoform): as the sequence (P01111 whole entry G12C) above, with C12G, Q61R counted along it
Chain of NRAS Q61R (P62937 whole entry, canonical isoform): as the sequence (P62937 whole entry) above
Procedure: (§2) The purpose of this biochemical assay is to measure the ability of test compounds to facilitate ternary complex formation between a nucleotide-loaded Ras isoform and cyclophilin A; the resulting ternary complex disrupts binding to a BRAF^RBD construct, inhibiting Ras signaling through a RAF effector.
(§3) […]. Compound is present in plate wells as a 10-point 3-fold dilution series starting at a final concentration of 30 μM. After incubation at 25° C. for 3 hours, a mixture of Anti-His Eu-W1024 and anti-GST allophycocyanin is then added to assay sample wells at final concentrations of 10 nM and 50 nM, respectively, and the reaction incubated for an additional 1.5 hours. […] Compounds that facilitate disruption of a Ras:RAF complex are identified as those eliciting a decrease in the TR-FRET ratio relative to DMSO control wells.
(§4) Note—The following protocol describes a procedure for monitoring disruption of K-Ras G12C (GMP-PNP) binding to BRAF^RBD by a compound of the invention. This protocol may also be executed substituting other Ras proteins or nucleotides.
(§5) The purpose of this biochemical assay was to measure the ability of test compounds to facilitate ternary complex formation between a nucleotide-loaded K-Ras isoform and Cyclophilin A; the resulting ternary complex disrupts binding to a BRAF^RBD construct, inhibiting K-Ras signaling through a RAF effector. Data is reported as IC50 values.
as §3, with “Compound was” for “Compound is”, “allophycocyanin was” for “allophycocyanin is”, “a K-Ras:RAF” for “a Ras:RAF”, “complex were” for “complex are”

[12] = target: NRAS Q61K (Homo sapiens (Human), UniProt P01111+P62937, Q61K); test: Ras-Raf (BRAF RBD) disruption / FRET / MOA assay, NRAS Q61K; type: biochemical; settings: NRAS Q61K; Ras-Raf disruption/FRET/MOA assay; read-out: IC50* NRAS Q61K FRET data
Chain of NRAS Q61K (P01111 whole entry Q61K): as the sequence (P01111 whole entry G12C) above, with C12G, Q61K counted along it
Chain of NRAS Q61K (P62937 whole entry): as the sequence (P62937 whole entry) above
Procedure: as §2, §3, §4, §5
as §3, with “Compound was” for “Compound is”, “allophycocyanin was” for “allophycocyanin is”, “a K-Ras:RAF” for “a Ras:RAF”, “complex were” for “complex are”

[13] = target: NRAS WT (Homo sapiens (Human), UniProt P01111+P62937); test: Ras-Raf (BRAF RBD) disruption / FRET / MOA assay, NRAS WT; type: biochemical; settings: read-out: IC50* NRAS WT FRET data
Chain of NRAS WT (P01111 whole entry): as the sequence (P01111 whole entry G12C) above, with C12G counted along it
Chain of NRAS WT (P62937 whole entry): as the sequence (P62937 whole entry) above
Procedure: as §2, §3, §4, §5
as §3, with “Compound was” for “Compound is”, “allophycocyanin was” for “allophycocyanin is”, “a K-Ras:RAF” for “a Ras:RAF”, “complex were” for “complex are”

EC50 [1] [nM]	IC50 [2]	IC50 [3]	IC50 [4]	IC50 [5]	IC50 [6]	IC50 [7]	IC50 [8]	IC50 [9] [nM]	IC50 [10]	IC50 [11] [nM]	IC50 [12] [nM]	IC50 [13] [nM]	Compound
< 5000	< 10 nM	10 to 100 nM	100 to 1000 nM	1000 to 10000 nM	100 to 1000 nM	100 to 1000 nM	100 to 1000 nM	100 to 1000	< 10 nM	100 to 1000	100 to 1000	100 to 1000	CCn1c(-c2cccnc2[C@H](C)OC)c2c3cc(ccc31)-c1cccc(c1)C[C@H](NC(=O)[C@H](C(C)C)N(C)C(=O)C1(F)CCN(C(=O)C#CC(C)(C)N(C)C)CC1)C(=O)N1CCC[C@H](N1)C(=O)OCC(C)(C)C2 (atropisomer, axis not shown) [Example A699]
< 5000	10 to 100 nM and 1000 to 10000 nM	100 to 1000 nM and > 10000 nM	100 to 1000 nM and > 10000 nM	1000 to 10000 nM and > 10000 nM	1000 to 10000 nM and > 10000 nM	1000 to 10000 nM and > 10000 nM	1000 to 10000 nM and > 10000 nM	100 to 1000	10 to 100 nM and 1000 to 10000 nM	1000 to 10000	1000 to 10000	1000 to 10000	C=CC(=O)N1CC[C@H](C(=O)N(C)[C@H](C(=O)N[C@H]2Cc3cccc(c3)-c3ccc4c(c3)c(c(-c3cc(N5CCN(C)CC5)cnc3[C@H](C)OC)n4CC)CC(C)(C)COC(=O)[C@@H]3CCCN(N3)C2=O)C(C)C)C1 (single isomer, unassigned) [Example A328]
< 5000	100 to 1000 nM	1000 to 10000 nM	1000 to 10000 nM	> 10000 nM	> 10000 nM	1000 to 10000 nM	> 10000 nM	1000 to 10000	100 to 1000 nM	1000 to 10000	1000 to 10000	1000 to 10000	C=CC(=O)N1CC[C@H](C(=O)N(C)[C@H](C(=O)N[C@H]2Cc3nc(cs3)-c3ccc4c(n3)c(c(-c3cccnc3[C@H](C)OC)n4CC)CC(C)(C)COC(=O)[C@@H]3CCCN(N3)C2=O)C(C)C)C1 [Example A347, (2S)-N-[(7S,13S)-21-ethyl-20-{2-[(1S)-1-methoxyethyl]pyridin-3-yl}-17,17-dimethyl-8,14-dioxo-15-oxa-4-thia-9,21,25,27,28-pentaazapentacyclo[17.5.2.1^{2,5}.1^{9,13}.0^{22,26}]octacosa-1(25),2,5(28),19,22(26),23-hexaen-7-yl]-3-methyl-2-{N-methyl-1-[(3S)-1-(prop-2-enoyl)pyrrolidin-3-yl]formamido}butanamide]
< 5000	10 to 100 nM	100 to 1000 nM	10 to 100 nM	100 to 1000 nM	100 to 1000 nM	> 10000 nM	100 to 1000 nM	10 to 100	10 to 100 nM	10 to 100	10 to 100	10 to 100	C=CC(=O)N1CCO[C@@H]2CCN(C(=O)N(C)[C@H](C(=O)N[C@H]3Cc4nc(cs4)-c4ccc5c(c4)c(c(-c4cccnc4[C@H](C)OC)n5CC)CC(C)(C)COC(=O)[C@@H]4CCCN(N4)C3=O)C(C)C)CC21 (some centres unmarked) [Example A596]

Compound	EC50 [1] [nM]	IC50 [2]	IC50 [3]	IC50 [4]	IC50 [5]	IC50 [6]	IC50 [7]	IC50 [8]	IC50 [9] [nM]	IC50 [10]	IC50 [11] [nM]	IC50 [12] [nM]	IC50 [13] [nM]
C=CC(=O)C1C[C@@H](C(=O)N(C)[C@H](C(=O)N[C@H]2Cc3cc(O)cc(c3)-c3ccc4c(n3)c(c(-c3ccccc3CCOC)n4CC)CC(C)(C)COC(=O)[C@@H]3CCCN(N3)C2=O)C(C)C)CN1 (some centres unmarked) [Example A211]	< 5000	100 nM to 1 µM and 1 µM to 10 µM and > 10 µM (2×)	> 10000 nM	1 µM to 10 µM and > 10 µM (3×)	> 10000 nM	1 µM to 10 µM and > 10 µM (3×)	> 10000 nM	> 10000 nM	1000 to 10000	100 nM to 1 µM and 1 µM to 10 µM and > 10 µM (2×)	> 10000	1000 to 10000	1000 to 10000

Source: patent US11566007B2, “Ras inhibitors” (Revolution Medicines, Inc., priority 2019, dated 2023)
